Experimental data from US6376692B1, “Zirconium alkoxytris (β-Diketonate), process for manufacturing the same, and liquid composition for formation of PZT film” (Kabushikikaisha Kojundokagaku Kenkyusho, priority 1999, dated 2002).
Read-outs that look alike come from different tables or passages of the source.

Conditions: room temperature

Row | amount dissolved in 1 liter of the solvent (Butyl Acetate) | amount dissolved in 1 liter of the solvent (Hexane) | amount dissolved in 1 liter of the solvent (THF) | amount dissolved in 1 liter of the solvent (Toluene) | amount dissolved in 1 liter of the solvent (n-Butyl Ether) | SMILES
1 | 460 grams in 1 liter of the solven | 620 grams in 1 liter of the solven | 980 grams in 1 liter of the solven | 1100 grams in 1 liter of the solven | 430 grams in 1 liter of the solven | CC(C)(C)C(=O)C=C([O-])C(C)(C)C.CC(C)(C)C(=O)C=C([O-])C(C)(C)C.CC(C)(C)C(=O)C=C([O-])C(C)(C)C.CC(C)[O-].[Zr+4] [Zr(OiPr)(dpm)3, zirconium isopropoxy tris(dipivaloylmethanate)]
2 | 180 grams in 1 liter of the solven | 430 grams in 1 liter of the solven | 1020 grams in 1 liter of the solven | 290 grams in 1 liter of the solven | 240 grams in 1 liter of the solven | CC(C)(C)C(=O)C=C(O)C(C)(C)C.CC(C)(C)C(=O)C=C(O)C(C)(C)C.CC(C)(C)C(=O)C=C(O)C(C)(C)C.CC(C)(C)C(=O)C=C(O)C(C)(C)C.[Zr] [Zr(dpm)4]
